The record followed here is patent US8791148B2, “Substituted benzimidazolone derivatives, medicaments comprising them and their use” (AbbVie Deutschland GmbH & Co. KG, priority 2006, dated 2014).

Each structure is given as a SMILES string. Some results are limits rather than exact numbers.

This assay concerns the target T1, human vasopressin V1b receptor (Homo sapiens, UniProt P47901).
T1 construct: expressed in transfected cells; host or cells: CHO-K1 (cell line hV1b-3H2_CHO), membrane preparation
T1 sequence (P47901 1-424): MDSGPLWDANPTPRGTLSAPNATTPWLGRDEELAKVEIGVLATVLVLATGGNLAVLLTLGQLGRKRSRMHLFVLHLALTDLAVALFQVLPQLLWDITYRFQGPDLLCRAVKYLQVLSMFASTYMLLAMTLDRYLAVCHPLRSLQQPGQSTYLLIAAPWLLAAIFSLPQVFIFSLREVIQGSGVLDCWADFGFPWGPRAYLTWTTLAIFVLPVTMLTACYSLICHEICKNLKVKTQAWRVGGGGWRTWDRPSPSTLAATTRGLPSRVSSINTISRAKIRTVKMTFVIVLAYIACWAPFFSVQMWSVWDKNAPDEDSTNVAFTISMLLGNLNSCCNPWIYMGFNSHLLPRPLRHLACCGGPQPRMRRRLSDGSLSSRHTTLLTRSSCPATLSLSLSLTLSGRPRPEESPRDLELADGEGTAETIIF
In words: Vasopressin V1b receptor binding assay. The following applies: membranes from CHO-K1 cells with stably expressed human V1b receptors; displacement of 1.5 nM 3H-AVP; read-out: V1b receptor affinity (affinity constant Ki). The method in brief: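 Ki values come from nonlinear regression of triplicate scintillation counts after filtration. Test compound (2% DMSO in the mixture) and radioligand were incubated 60 min at room temperature with human V1b membranes in pH 7.4 Tris buffer with 10 mM MgCl2 and 0.1% BSA. Nonspecific binding was set with 1 uM AVP.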
Regarding `COc1ccc(S(=O)(=O)n2c(=O)n(C(C(=O)N3CCC(N)CC3)c3ccccc3)c3cc(C#N)ccc32)cc1` (stereo not shown) [Example 239, 3-[2-(4-Amino-piperidin-1-yl)-2-oxo-1-phenyl-ethyl]-1-(4-methoxybenzenesulfonyl)-2-oxo-2,3-dihydro-1H-benzoimidazole-5-carbonitrile], the inhibitory constant (Ki) fell in the range of 500 to 10000 nM.
Then `COc1ccc(S(=O)(=O)n2c(=O)n(C(C(=O)N3CCC[C@H](N)C3)c3ccccc3)c3cc(C#N)ccc32)cc1` (stereo partly drawn) [Example 240, 3-[2-((S)-3-Amino-piperidin-1-yl)-2-oxo-1-phenyl-ethyl]-1-(4-methoxybenzenesulfonyl)-2-oxo-2,3-dihydro-1H-benzoimidazole-5-carbonitrile], with 100 to 500 nM; and `COc1ccc(S(=O)(=O)n2c(=O)n(C(C(=O)N3CCC[C@@H](N)C3)c3ccccc3)c3cc(C#N)ccc32)cc1` (stereo partly drawn) [Example 241, 3-[2-((R)-3-Amino-piperidin-1-yl)-2-oxo-1-phenyl-ethyl]-1-(4-methoxybenzenesulfonyl)-2-oxo-2,3-dihydro-1H-benzoimidazole-5-carbonitrile], with 500 to 10000 nM.
As to `COc1ccc(S(=O)(=O)n2c(=O)n(C(C(=O)N3CC[C@H](NCc4c[nH]cn4)C3)c3ccccc3)c3cc(C#N)ccc32)cc1` (stereo partly drawn) [Example 242, 3-(2-{(S)-3-[(1H-Imidazol-4-ylmethyl)-amino]-pyrrolidin-1-yl}-2-oxo-1-phenylethyl)-1-(4-methoxy-benzenesulfonyl)-2-oxo-2,3-dihydro-1H-benzoimidazole-5-carbonitrile; compound with trifluoroacetic acid], the Ki was < 100 nM.
The result for `COc1ccc(S(=O)(=O)n2c(=O)n(C(C(=O)N3CC[C@H](NC4CCN(C(=O)OC(C)(C)C)CC4)C3)c3ccccc3)c3cc(C#N)ccc32)cc1` (stereo partly drawn) [Example 243, 4-((S)-1-{2-[6-Cyano-3-(4-methoxy-benzenesulfonyl)-2-oxo-2,3-dihydrobenzoimidazol-1-yl]-2-phenyl-acetyl}-pyrrolidin-3-ylamino)-piperidine-1-carboxylic acid tert-butyl ester] reads 500 to 10000 nM.
Then `COc1ccc(S(=O)(=O)n2c(=O)n(C(C(=O)N3CC[C@H](NC4CCN(C(C)(C)C)CC4)C3)c3ccccc3)c3cc(C#N)ccc32)cc1` (stereo partly drawn) [Example 244, 3-{2-[(S)-3-(1-tert-Butyl-piperidin-4-ylamino)-pyrrolidin-1-yl]-2-oxo-1-phenylethyl}-1-(4-methoxy-benzenesulfonyl)-2-oxo-2,3-dihydro-1H-benzoimidazole-5-carbonitrile], with < 100 nM; and `COc1ccc(S(=O)(=O)n2c(=O)n(C(C(=O)N3CC[C@H](NC4CCN(CCF)CC4)C3)c3ccccc3)c3cc(C#N)ccc32)cc1` (stereo partly drawn) [Example 245, 3-(2-{(S)-3-[1-(2-Fluoro-ethyl)-piperidin-4-ylamino]-pyrrolidin-1-yl}-2-oxo-1-phenyl-ethyl)-1-(4-methoxy-benzenesulfonyl)-2-oxo-2,3-dihydro-1H-benzoimidazole-5-carbonitrile], with < 100 nM.
Then `COc1ccc(S(=O)(=O)n2c(=O)n(C(C(=O)N3CCC[C@H](NC4CCN(C)CC4)C3)c3ccccc3)c3cc(C#N)ccc32)cc1` (stereo partly drawn) [Example 246, 1-(4-Methoxy-benzenesulfonyl)-3-{2-[(S)-3-(1-methyl-piperidin-4-ylamino)-piperidin-1-yl]-2-oxo-1-phenyl-ethyl}-2-oxo-2,3-dihydro-1H-benzoimidazole-5-carbonitrile], with 100 to 500 nM; and `COc1ccc(S(=O)(=O)n2c(=O)n(C(C(=O)N3CCC[C@H](NC4CCN(C(C)C)CC4)C3)c3ccccc3)c3cc(C#N)ccc32)cc1` (stereo partly drawn) [Example 247, 3-{2-[(S)-3-(1-Isopropyl-piperidin-4-ylamino)-piperidin-1-yl]-2-oxo-1-phenylethyl}-1-(4-methoxy-benzenesulfonyl)-2-oxo-2,3-dihydro-1H-benzoimidazole-5-carbonitrile], with < 100 nM; and `COc1ccc(S(=O)(=O)n2c(=O)n(C(C(=O)N3CCC[C@@H](NC4CCN(C)CC4)C3)c3ccccc3)c3cc(C#N)ccc32)cc1` (stereo partly drawn) [Example 248, 1-(4-Methoxy-benzenesulfonyl)-3-{2-[(R)-3-(1-methyl-piperidin-4-ylamino)-piperidin-1-yl]-2-oxo-1-phenyl-ethyl}-2-oxo-2,3-dihydro-1H-benzoimidazole-5-carbonitrile], with 100 to 500 nM.
On to `COc1ccc(S(=O)(=O)n2c(=O)n(C(C(=O)N3CCC[C@@H](NC4CCN(C(C)C)CC4)C3)c3ccccc3)c3cc(C#N)ccc32)cc1` (stereo partly drawn) [Example 249, 3-{2-[(R)-3-(1-Isopropyl-piperidin-4-ylamino)-piperidin-1-yl]-2-oxo-1-phenylethyl}-1-(4-methoxy-benzenesulfonyl)-2-oxo-2,3-dihydro-1H-benzoimidazole-5-carbonitrile], for which the Ki is < 100 nM.
Then `COc1ccc(S(=O)(=O)n2c(=O)n(C(C(=O)N3CC[C@H](NC(=O)C4CCN(C)CC4)C3)c3ccccc3)c3cc(C#N)ccc32)cc1` (stereo partly drawn) [Example 252, 1-Methyl-piperidine-4-carboxylic acid ((S)-1-{2-[6-cyano-3-(4-methoxybenzenesulfonyl)-2-oxo-2,3-dihydro-benzoimidazol-1-yl]-2-phenyl-acetyl}-pyrrolidin-3-yl)-amide; compound with trifluoroacetic acid], with 100 to 500 nM; and `COc1ccc(S(=O)(=O)n2c(=O)n(C(C(=O)N3CC[C@H](Nc4ccncc4)C3)c3ccccc3)c3cc(C#N)ccc32)cc1` (stereo partly drawn) [Example 253, 1-(4-Methoxy-benzenesulfonyl)-2-oxo-3-{2-oxo-1-phenyl-2-[(S)-3-(pyridine-4-ylamino)-pyrrolidin-1-yl]-ethyl}-2,3-dihydro-1H-benzoimidazole-5-carbonitrile; compound with trifluoroacetic acid], with < 100 nM; and `COc1ccc(S(=O)(=O)n2c(=O)n(C(C(=O)N3CC[C@H](Nc4ccnc(C)c4)C3)c3ccccc3)c3cc(C#N)ccc32)cc1` (stereo partly drawn) [Example 254, 1-(4-Methoxy-benzenesulfonyl)-3-{2-[(S)-3-(2-methyl-pyridine-4-ylamino)-pyrrolidin-1-yl]-2-oxo-1-phenyl-ethyl}-2-oxo-2,3-dihydro-1H-benzoimidazole-5-carbonitrile; compound with trifluoroacetic acid], with 100 to 500 nM.
The result for `COc1ccc(S(=O)(=O)n2c(=O)n(C(C(=O)N3CC[C@H](CNC4CCN(C)CC4)C3)c3ccccc3)c3cc(C#N)ccc32)cc1` (stereo partly drawn) [Example 255, 1-(4-Methoxy-benzenesulfonyl)-3-(2-{(R)-3-[(1-methyl-piperidin-4-ylamino)-methyl]-pyrrolidin-1-yl}-2-oxo-1-phenyl-ethyl)-2-oxo-2,3-dihydro-1H-benzoimidazole-5-carbonitrile; compound with trifluoroacetic acid] reads < 100 nM; that for `COc1ccc(S(=O)(=O)n2c(=O)n(C(C(=O)N3CC[C@H](CN(C)C4CCN(C)CC4)C3)c3ccccc3)c3cc(C#N)ccc32)cc1` (stereo partly drawn) [Example 256, 1-(4-Methoxy-benzenesulfonyl)-3-[2-((R)-3-{[methyl-(1-methyl-piperidin-4-yl)-amino]-methyl}-pyrrolidin-1-yl)-2-oxo-1-phenyl-ethyl]-2-oxo-2,3-dihydro-1H-benzoimidazole-5-carbonitrile; compound with trifluoroacetic acid], < 100 nM.
